According to PubChem BioAssay AID276 (DTP/NCI, 2004):
Where “and” joins values, the source holds several entries; their conditions need not be identical. Equal entries are not always repeated. Inconclusive results and toxic doses are left out. Rule for the calls: active = survival T/C of 150% or more; inactive = T/C below 125% in these data.

Test system: B6C3F1 mice, Lewis lung carcinoma iv, survival T/C
Test: NCI In Vivo Anticancer Drug Screen. Data for tumor model Lewis Lung Carcinoma (intravenous) in B6C3F1 mice
Details: endpoint: median survival time, schedule: Q01DX009 (ip), higher = longer survival
Summary of the method: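 Mice carrying transplanted tumors received test compound; survival in the treated group was divided by that of the vehicle-treated control group to give the T/C value.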

[1] = dose: 100.0 mg/kg/injection, vehicle: Klucel (hydroxypropylcellulose) (HPC)
[2] = dose: 200.0 mg/kg/injection, vehicle: Klucel (hydroxypropylcellulose) (HPC)
[3] = dose: 12.5 mg/kg/injection, vehicle: saline with Tween-80
[4] = dose: 25.0 mg/kg/injection, vehicle: saline with Tween-80
[5] = dose: 50.0 mg/kg/injection, vehicle: saline with Tween-80
[6] = dose: 100.0 mg/kg/injection, vehicle: saline with Tween-80
[7] = dose: 6.25 mg/kg/injection, vehicle: saline
[8] = dose: 12.5 mg/kg/injection, vehicle: saline
[9] = dose: 50.0 mg/kg/injection, vehicle: saline
[10] = dose: 25.0 mg/kg/injection, vehicle: Klucel (hydroxypropylcellulose) (HPC)
[11] = dose: 50.0 mg/kg/injection, vehicle: Klucel (hydroxypropylcellulose) (HPC)

Measured: T/C

Cc1cc(NS(=O)(=O)c2ccc(N=Nc3cc(N=Nc4ccc(S(=O)(=O)Nc5cc(C)nc(C)n5)cc4)c4c(NC(=O)C(Cl)Cl)cccc4c3OC(=O)C(Cl)Cl)cc2)nc(C)n1 (tested in a mixture with another compound)
inactive: dose: 25.0 mg/kg/injection, vehicle: suspension in saline 105 % of control | dose: 50.0 mg/kg/injection, vehicle: suspension in saline 90 % of control | dose: 100.0 mg/kg/injection, vehicle: suspension in saline 88 % of control | dose: 200.0 mg/kg/injection, vehicle: suspension in saline 88 % of control

COC1=C2C[C@@H](C)C[C@@H](OC)[C@@H](O)[C@H](C)/C=C(\C)[C@@H](OC(N)=O)[C@H](OC)/C=C\C=C(/C)C(=O)NC(=CC1=O)C2=O
inactive: dose: 0.12 mg/kg/injection, vehicle: saline with Tween-80 96 % of control | dose: 0.13 mg/kg/injection, vehicle: saline with Tween-80 109 % of control | dose: 0.25 mg/kg/injection, vehicle: saline with Tween-80 96 % of control and 110 % of control | dose: 0.5 mg/kg/injection, vehicle: saline with Tween-80 101 % of control and 108 % of control | dose: 1.0 mg/kg/injection, vehicle: saline with Tween-80 101 % of control and 106 % of control | dose: 2.0 mg/kg/injection, vehicle: saline with Tween-80 100 % of control and 106 % of control | dose: 4.0 mg/kg/injection, vehicle: saline with Tween-80 102 % of control

CCCCNC(C)C1(O)Cc2c(O)c3c(c(O)c2C(OC2CC(N)C(O)C(C)O2)C1)C(=O)c1c(OC)cccc1C3=O (stereo not given)
inactive: dose: 10.0 mg/kg/injection, vehicle: water 108 % of control | dose: 20.0 mg/kg/injection, vehicle: water 101 % of control | dose: 40.0 mg/kg/injection, vehicle: water 107 % of control | dose: 80.0 mg/kg/injection, vehicle: water 113 % of control

CC[C@@H](C)[C@@H]1NC(=O)C(NC(=O)C(CC(C)C)N(C)C(=O)C2CCCN2C(=O)C(C)O)C(C)OC(=O)C(Cc2ccc(OC)cc2)N(C)C(=O)C2CCCN2C(=O)C(CC(C)C)NC(=O)C(C)C(=O)C(C(C)C)OC(=O)C[C@H]1O (stereo not given in full)
inactive: dose: 25.0 micrograms/kg/injection, vehicle: distilled water + alcohol 96 % of control | dose: 50.0 micrograms/kg/injection, vehicle: distilled water + alcohol 102 % of control | dose: 100.0 micrograms/kg/injection, vehicle: distilled water + alcohol 98 % of control | dose: 200.0 micrograms/kg/injection, vehicle: distilled water + alcohol 96 % of control | dose: 400.0 micrograms/kg/injection, vehicle: distilled water + alcohol 98 % of control

COC(=O)Nc1cn2ccc(C(Cl)=C(Cl)Cl)cc2n1
inactive: [1] 116 % of control | [2] 103 % of control

O=C(Nc1ccccc1C(=O)O)c1cc([N+](=O)[O-])cc([N+](=O)[O-])c1
inactive: [3] 96 % of control | [4] 91 % of control | [5] 102 % of control | [6] 102 % of control | dose: 200.0 mg/kg/injection, vehicle: saline with Tween-80 95 % of control

CC1CN1P1(N2CC2C)=NP(N2CC2C)(N2CC2C)=NP(N2CC2C)(N2CC2C)=N1 (stereo not given)
inactive: dose: 3.12 mg/kg/injection, vehicle: saline 100 % of control | [7] 100 % of control | [8] 98 % of control | dose: 25.0 mg/kg/injection, vehicle: saline 97 % of control | [9] 90 % of control

O=C(/C=C(\Cl)C(=O)NO)NO
inactive: [7] 115 % of control | [8] 112 % of control | [9] 110 % of control | dose: 100.0 mg/kg/injection, vehicle: saline 104 % of control

Cc1ccc(C2NC(=S)N3C(c4ccc(C)cc4)NC(=S)N23)cc1 (stereo not given)
inactive: [10] 103 % of control | [11] 101 % of control | [1] 93 % of control | [2] 99 % of control | dose: 400.0 mg/kg/injection, vehicle: Klucel (hydroxypropylcellulose) (HPC) 98 % of control | dose: 800.0 mg/kg/injection, vehicle: Klucel (hydroxypropylcellulose) (HPC) 109 % of control

O=C1N[C@H]2[C@H](CS[C@H]2CCCCC(=O)N(CCP(c2ccccc2)c2ccccc2)CCP(c2ccccc2)c2ccccc2)N1
inactive: [10] 93 % of control and 114 % of control | [11] 98 % of control and 88 % of control | [1] 102 % of control | [2] 92 % of control and 98 % of control

NC(C(=O)O)c1ccc(CBr)cc1 (stereo not given)
inactive: [3] 97 % of control | [4] 100 % of control | [5] 105 % of control | [6] 93 % of control
